Data from ChEMBL document CHEMBL3991601, “The target landscape of clinical kinase drugs” (Science, 2017).
pKd: −log10 of the molar value. Calls of active or inactive are those of the source. For most assays here, no stated cut-off is given here; in the data, actives have a measured Kd and inactives only a lower limit.

Columns and labels:
[1] = target: T1, Serine/threonine-protein kinase A-Raf (Homo sapiens, UniProt P10398)
T1 sequence (P10398 whole entry): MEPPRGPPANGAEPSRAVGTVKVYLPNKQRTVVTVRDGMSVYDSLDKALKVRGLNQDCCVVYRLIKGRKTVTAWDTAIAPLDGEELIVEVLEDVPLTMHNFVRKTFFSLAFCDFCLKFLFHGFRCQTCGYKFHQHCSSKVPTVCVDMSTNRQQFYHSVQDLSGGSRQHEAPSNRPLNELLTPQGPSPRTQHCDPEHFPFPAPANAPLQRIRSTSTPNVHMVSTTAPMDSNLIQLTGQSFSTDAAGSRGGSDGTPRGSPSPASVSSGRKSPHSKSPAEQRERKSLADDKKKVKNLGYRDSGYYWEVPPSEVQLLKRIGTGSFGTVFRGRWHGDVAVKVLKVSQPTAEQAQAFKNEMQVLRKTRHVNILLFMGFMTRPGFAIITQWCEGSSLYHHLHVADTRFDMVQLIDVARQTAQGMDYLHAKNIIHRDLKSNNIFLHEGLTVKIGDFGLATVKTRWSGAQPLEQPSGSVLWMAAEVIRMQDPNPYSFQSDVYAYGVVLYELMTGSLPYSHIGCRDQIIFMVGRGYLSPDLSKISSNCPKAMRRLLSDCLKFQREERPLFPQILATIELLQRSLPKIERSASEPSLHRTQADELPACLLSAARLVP

[2] = target: Fibroblast growth factor receptor 1 (Homo sapiens, UniProt P11362)
[3] = target: U5 small nuclear ribonucleoprotein 200 kDa helicase (Homo sapiens, UniProt O75643)
[4] = target: T2, Beta-adrenergic receptor kinase 1 (Homo sapiens, UniProt P25098)
T2 sequence (P25098 whole entry): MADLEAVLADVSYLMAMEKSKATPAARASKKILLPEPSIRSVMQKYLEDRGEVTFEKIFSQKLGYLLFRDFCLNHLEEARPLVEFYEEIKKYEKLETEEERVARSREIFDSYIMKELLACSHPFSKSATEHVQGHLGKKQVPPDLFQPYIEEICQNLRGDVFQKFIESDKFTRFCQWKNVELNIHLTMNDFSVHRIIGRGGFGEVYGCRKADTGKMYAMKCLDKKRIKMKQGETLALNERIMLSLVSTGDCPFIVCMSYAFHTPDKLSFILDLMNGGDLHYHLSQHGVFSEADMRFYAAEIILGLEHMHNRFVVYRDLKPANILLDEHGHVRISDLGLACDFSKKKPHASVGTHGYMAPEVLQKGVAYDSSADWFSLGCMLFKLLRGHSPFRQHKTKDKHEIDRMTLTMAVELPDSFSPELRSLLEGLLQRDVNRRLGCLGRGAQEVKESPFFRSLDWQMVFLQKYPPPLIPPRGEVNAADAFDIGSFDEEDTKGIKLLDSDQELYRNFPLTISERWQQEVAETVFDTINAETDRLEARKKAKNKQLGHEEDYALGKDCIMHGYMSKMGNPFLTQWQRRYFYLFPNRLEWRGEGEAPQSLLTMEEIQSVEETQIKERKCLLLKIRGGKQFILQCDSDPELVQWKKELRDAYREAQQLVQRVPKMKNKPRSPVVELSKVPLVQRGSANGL

[5] = target: Casein kinase I isoform delta (Homo sapiens, UniProt P48730)
[6] = target: Ribosomal protein S6 kinase alpha-4 (Homo sapiens, UniProt O75676)
GTP-binding protein 4 = GTP-binding protein 4 (Homo sapiens, UniProt Q9BZE4)
[7] = target: T3, Serine/threonine-protein kinase TAO2 (Homo sapiens, UniProt Q9UL54)
T3 sequence (Q9UL54 whole entry): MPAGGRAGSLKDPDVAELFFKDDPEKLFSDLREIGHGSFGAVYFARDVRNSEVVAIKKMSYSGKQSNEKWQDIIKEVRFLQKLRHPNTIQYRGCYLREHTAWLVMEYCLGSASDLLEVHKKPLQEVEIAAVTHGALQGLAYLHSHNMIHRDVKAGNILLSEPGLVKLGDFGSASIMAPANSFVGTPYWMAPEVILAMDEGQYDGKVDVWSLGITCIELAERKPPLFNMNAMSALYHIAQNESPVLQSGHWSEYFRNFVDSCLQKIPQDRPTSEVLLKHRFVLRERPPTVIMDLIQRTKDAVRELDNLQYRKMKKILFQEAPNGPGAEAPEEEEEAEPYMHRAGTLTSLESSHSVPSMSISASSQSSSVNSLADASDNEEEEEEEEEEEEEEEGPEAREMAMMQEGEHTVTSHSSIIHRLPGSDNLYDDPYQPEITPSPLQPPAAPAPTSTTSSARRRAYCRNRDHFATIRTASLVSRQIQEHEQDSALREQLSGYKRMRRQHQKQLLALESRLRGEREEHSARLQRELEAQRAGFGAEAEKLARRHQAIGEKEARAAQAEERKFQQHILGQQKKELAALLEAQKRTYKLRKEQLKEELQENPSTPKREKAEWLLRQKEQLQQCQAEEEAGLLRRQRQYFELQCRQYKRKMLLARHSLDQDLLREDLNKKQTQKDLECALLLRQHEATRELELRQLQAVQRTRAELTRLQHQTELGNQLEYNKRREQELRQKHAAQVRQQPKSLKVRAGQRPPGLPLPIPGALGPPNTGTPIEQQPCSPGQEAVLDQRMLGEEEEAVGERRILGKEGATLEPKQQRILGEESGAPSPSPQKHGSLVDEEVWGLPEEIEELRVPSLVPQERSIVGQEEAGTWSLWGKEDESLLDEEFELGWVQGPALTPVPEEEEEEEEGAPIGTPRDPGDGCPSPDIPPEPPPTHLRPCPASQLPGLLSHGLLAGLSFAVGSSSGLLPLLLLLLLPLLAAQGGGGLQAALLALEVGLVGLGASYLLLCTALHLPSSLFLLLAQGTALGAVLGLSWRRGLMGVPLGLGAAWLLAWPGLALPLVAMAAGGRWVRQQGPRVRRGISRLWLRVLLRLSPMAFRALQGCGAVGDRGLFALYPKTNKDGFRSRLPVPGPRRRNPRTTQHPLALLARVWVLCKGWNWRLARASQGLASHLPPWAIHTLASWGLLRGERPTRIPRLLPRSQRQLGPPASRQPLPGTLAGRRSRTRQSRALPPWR

[8] = target: Tyrosine-protein kinase Lyn (Homo sapiens, UniProt P07948)
Tyrosine-protein kinase Lyn, sequence (P07948 whole entry): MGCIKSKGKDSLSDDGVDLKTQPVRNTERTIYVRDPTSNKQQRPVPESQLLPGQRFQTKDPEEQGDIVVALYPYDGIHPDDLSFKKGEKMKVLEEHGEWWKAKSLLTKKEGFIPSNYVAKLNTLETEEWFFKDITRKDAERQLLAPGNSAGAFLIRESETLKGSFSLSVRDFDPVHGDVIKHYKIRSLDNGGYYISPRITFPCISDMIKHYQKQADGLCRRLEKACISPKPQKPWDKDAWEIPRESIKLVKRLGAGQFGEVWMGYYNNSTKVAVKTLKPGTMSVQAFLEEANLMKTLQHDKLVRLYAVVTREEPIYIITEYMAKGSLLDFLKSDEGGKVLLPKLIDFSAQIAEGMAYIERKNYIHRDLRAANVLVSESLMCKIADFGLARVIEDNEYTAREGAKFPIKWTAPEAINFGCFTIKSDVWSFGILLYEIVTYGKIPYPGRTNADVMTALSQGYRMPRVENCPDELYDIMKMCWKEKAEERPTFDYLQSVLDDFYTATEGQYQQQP

U5 small nuclear ribonucleoprotein 200 kDa helicase, sequence (O75643 whole entry): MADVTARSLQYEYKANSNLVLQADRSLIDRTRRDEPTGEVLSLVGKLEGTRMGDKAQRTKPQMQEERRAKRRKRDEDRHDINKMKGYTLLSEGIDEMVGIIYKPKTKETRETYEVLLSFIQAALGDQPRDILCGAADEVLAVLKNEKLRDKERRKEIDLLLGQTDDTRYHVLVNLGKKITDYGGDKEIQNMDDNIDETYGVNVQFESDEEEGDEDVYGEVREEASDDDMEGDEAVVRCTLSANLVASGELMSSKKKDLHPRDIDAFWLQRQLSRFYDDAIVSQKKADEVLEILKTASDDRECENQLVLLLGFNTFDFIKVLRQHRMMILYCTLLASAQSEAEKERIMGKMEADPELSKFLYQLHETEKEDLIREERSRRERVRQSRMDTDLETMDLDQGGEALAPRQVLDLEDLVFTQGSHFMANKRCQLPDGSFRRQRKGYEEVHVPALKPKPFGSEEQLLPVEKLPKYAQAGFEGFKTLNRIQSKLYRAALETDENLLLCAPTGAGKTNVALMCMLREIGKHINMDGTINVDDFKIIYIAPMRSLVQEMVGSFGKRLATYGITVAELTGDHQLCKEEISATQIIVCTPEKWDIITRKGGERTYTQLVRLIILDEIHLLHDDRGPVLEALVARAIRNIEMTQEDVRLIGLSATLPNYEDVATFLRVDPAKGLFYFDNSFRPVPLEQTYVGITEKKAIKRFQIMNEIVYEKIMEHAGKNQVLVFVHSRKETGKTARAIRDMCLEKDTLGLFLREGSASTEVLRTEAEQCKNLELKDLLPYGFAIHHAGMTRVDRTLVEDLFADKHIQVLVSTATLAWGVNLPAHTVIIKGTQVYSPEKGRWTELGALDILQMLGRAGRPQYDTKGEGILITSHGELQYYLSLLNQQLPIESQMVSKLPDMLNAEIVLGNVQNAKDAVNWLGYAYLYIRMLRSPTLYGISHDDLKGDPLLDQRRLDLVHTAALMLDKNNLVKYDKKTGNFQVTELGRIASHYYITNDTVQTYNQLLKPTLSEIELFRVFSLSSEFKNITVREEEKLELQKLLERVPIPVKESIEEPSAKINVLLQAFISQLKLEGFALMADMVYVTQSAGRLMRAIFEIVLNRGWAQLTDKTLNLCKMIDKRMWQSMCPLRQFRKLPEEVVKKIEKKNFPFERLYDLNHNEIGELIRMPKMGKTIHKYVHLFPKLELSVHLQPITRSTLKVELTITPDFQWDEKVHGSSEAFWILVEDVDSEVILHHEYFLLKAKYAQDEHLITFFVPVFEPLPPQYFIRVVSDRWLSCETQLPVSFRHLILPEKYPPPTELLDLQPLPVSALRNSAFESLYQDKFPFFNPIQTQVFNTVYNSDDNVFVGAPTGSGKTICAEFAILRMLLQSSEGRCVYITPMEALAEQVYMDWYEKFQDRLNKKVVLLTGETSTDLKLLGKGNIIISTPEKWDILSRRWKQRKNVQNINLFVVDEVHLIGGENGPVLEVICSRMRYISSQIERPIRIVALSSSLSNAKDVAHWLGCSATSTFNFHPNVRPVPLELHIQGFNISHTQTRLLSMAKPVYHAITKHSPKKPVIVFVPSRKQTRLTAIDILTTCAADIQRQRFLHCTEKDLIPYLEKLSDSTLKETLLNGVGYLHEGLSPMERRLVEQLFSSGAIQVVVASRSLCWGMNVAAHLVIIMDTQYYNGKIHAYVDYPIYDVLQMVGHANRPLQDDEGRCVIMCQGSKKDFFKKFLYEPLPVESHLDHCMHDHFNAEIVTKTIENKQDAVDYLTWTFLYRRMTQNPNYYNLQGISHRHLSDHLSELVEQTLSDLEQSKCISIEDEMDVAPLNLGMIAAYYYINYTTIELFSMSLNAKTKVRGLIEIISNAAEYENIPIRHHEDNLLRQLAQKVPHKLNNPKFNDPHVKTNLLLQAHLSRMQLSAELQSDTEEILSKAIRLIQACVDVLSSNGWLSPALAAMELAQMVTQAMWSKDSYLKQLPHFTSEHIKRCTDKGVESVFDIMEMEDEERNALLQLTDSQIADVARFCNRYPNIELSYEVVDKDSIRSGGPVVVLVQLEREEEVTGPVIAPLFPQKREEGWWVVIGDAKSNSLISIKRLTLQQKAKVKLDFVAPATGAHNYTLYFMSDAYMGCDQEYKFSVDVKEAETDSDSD
Casein kinase I isoform delta, sequence (P48730 whole entry, canonical isoform): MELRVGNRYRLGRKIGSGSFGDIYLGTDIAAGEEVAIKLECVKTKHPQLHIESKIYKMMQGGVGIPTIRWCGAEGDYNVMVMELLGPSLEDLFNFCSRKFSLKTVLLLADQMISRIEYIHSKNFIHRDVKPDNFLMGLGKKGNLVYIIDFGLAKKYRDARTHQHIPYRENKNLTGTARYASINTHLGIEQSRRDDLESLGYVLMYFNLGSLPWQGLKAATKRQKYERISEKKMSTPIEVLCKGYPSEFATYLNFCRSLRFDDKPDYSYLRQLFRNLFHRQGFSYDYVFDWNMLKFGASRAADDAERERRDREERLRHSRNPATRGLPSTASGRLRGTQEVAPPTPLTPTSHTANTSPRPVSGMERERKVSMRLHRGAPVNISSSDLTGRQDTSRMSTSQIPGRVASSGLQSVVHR
Ribosomal protein S6 kinase alpha-4, sequence (O75676 whole entry): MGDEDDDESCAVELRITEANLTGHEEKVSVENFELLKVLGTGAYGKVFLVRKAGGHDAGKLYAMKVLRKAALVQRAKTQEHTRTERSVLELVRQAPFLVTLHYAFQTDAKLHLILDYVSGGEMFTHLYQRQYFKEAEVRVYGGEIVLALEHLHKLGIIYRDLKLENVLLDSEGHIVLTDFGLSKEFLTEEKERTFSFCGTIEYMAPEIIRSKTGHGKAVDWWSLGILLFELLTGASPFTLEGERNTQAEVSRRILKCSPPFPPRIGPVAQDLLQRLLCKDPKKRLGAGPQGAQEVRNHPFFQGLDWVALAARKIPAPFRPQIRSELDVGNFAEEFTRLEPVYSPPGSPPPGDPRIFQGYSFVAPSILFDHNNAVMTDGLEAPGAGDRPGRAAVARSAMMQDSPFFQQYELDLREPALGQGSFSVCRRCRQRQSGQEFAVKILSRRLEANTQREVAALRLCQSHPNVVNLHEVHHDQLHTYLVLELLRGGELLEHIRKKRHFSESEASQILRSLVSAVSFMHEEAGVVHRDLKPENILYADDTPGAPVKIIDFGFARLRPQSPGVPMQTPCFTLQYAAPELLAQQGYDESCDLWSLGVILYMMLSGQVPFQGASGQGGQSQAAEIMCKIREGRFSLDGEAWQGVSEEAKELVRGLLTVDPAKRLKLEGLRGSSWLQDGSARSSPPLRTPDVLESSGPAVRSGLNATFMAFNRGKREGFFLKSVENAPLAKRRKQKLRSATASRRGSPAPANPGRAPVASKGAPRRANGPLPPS
Fibroblast growth factor receptor 1, sequence (P11362 whole entry): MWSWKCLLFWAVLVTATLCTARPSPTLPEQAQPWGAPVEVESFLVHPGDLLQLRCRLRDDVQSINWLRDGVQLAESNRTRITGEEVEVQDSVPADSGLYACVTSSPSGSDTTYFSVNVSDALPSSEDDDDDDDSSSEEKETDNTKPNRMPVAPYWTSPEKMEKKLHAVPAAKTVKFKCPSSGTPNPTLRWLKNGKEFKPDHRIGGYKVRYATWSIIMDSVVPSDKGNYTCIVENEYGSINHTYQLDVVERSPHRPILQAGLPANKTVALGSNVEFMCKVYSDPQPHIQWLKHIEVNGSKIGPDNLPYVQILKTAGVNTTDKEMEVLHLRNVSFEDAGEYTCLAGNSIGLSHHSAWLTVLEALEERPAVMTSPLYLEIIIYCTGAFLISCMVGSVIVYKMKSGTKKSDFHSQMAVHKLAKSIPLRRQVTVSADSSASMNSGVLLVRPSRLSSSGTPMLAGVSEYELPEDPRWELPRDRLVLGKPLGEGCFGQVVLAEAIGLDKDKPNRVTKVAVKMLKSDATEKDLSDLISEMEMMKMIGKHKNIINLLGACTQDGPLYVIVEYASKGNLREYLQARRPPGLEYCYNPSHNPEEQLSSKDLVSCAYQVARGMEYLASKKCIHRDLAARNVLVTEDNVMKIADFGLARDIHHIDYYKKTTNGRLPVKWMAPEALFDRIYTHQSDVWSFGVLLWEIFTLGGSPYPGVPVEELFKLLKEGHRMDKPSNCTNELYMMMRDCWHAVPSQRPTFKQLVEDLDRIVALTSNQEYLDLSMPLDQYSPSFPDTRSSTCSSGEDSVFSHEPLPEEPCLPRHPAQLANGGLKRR

Structure (SMILES) | Kd [1] | Kd [2] | Kd [3] | Kd [4] | Kd [5] | Kd [6] | Kd (GTP-binding protein 4) | Kd [7] | Kd [8] | pKd (GTP-binding protein 4)
C=CCN(/C=C1/C(=O)O[C@H](COC)[C@@]2(C)C1=C(O)C(=O)C1=C2[C@H](OC(C)=O)C[C@]2(C)C(=O)CC[C@@H]12)CC=C [SONOLISIB] | > 30 µM (inactive) | > 30 µM (inactive) | > 30 µM (inactive) | > 30 µM (inactive) | > 30 µM (inactive) | > 30 µM (inactive) | > 30 µM (inactive) | > 30 µM (inactive) | > 30 µM (inactive) | 
CN1CCN(c2nc(C3=C(c4c[nH]c5ccccc45)C(=O)NC3=O)c3ccccc3n2)CC1 [SOTRASTAURIN] | > 30 µM (inactive) | > 30 µM (inactive) | > 30 µM (inactive) | > 30 µM (inactive) | > 30 µM (inactive) | > 30 µM (inactive) |  | > 30 µM (inactive) | > 30 µM (inactive) | 5.09
CC(C)(O)CC(=O)NCCn1ccc2ncnc(Nc3ccc(Oc4cccc(C(F)(F)F)c4)c(Cl)c3)c21 [TAK-285] | > 30 µM (inactive) | > 30 µM (inactive) | > 30 µM (inactive) | > 30 µM (inactive) | > 30 µM (inactive) | > 30 µM (inactive) | > 30 µM (inactive) | > 30 µM (inactive) | > 30 µM (inactive) | 
Cc1cc(C(=O)Nc2cc(Oc3ccc4nc(NC(=O)C5CC5)cn4n3)ccc2C)n(C)n1 [TAK-593] | > 30 µM (inactive) | > 30 µM (inactive) | > 30 µM (inactive) | > 30 µM (inactive) | > 30 µM (inactive) | > 30 µM (inactive) | > 30 µM (inactive) | > 30 µM (inactive) | > 30 µM (inactive) | 
Cn1c(=O)c(F)c(Nc2ccc(I)cc2F)c2c(=O)n(C[C@@H](O)CO)cnc21 [TAK-733] | > 30 µM (inactive) | > 30 µM (inactive) | > 30 µM (inactive) | > 30 µM (inactive) | > 30 µM (inactive) | > 30 µM (inactive) | > 30 µM (inactive) | > 30 µM (inactive) | > 30 µM (inactive) | 
O[C@H]1CC[C@H](Nc2ncc3nc(Nc4c(F)cc(F)cc4F)n([C@H]4CCOC4)c3n2)CC1 [TANZISERTIB] | > 30 µM (inactive) | > 30 µM (inactive) | > 30 µM (inactive) | > 30 µM (inactive) | > 30 µM (inactive) | > 30 µM (inactive) | > 30 µM (inactive) | > 30 µM (inactive) | > 30 µM (inactive) | 
CNC(=O)c1cc(COc2nnc(Nc3ccc(Cl)cc3)c3ccoc23)ccn1 [TELATINIB] | > 30 µM (inactive) | > 30 µM (inactive) | > 30 µM (inactive) | > 30 µM (inactive) | > 30 µM (inactive) | > 30 µM (inactive) | > 30 µM (inactive) | > 30 µM (inactive) | > 30 µM (inactive) | 
C[C@@H]1COC(Nc2ccc3ncnc(Nc4ccc(OCc5nccs5)c(Cl)c4)c3c2)=N1 [VARLITINIB] | > 30 µM (inactive) | > 30 µM (inactive) | > 30 µM (inactive) | > 30 µM (inactive) | > 30 µM (inactive) | > 30 µM (inactive) | > 30 µM (inactive) | > 30 µM (inactive) | > 30 µM (inactive) | 
CNC(=O)c1cccc(-c2ccc3c(N4CCOC[C@@H]4C)nc(N4CCOC[C@@H]4C)nc3n2)c1 [VISTUSERTIB] | > 30 µM (inactive) | > 30 µM (inactive) | > 30 µM (inactive) | > 30 µM (inactive) | > 30 µM (inactive) | > 30 µM (inactive) | > 30 µM (inactive) | > 30 µM (inactive) | > 30 µM (inactive) | 
NC(=O)c1ccc(N(C(N)=O)c2c(F)cccc2F)nc1-c1ccc(F)cc1F [VX-702] | > 30 µM (inactive) | > 30 µM (inactive) | > 30 µM (inactive) | > 30 µM (inactive) | > 30 µM (inactive) | > 30 µM (inactive) | > 30 µM (inactive) | > 30 µM (inactive) | > 30 µM (inactive) | 
COc1cc2ncnc(Nc3ccc(O)cc3)c2cc1OC [WHI-P131] | > 30 µM (inactive) | > 30 µM (inactive) | > 30 µM (inactive) | > 30 µM (inactive) | > 30 µM (inactive) | > 30 µM (inactive) | > 30 µM (inactive) | > 30 µM (inactive) | > 30 µM (inactive) | 
